Measured values reported in patent publication US20110028566A1, “COMPOSITIONS AND PRODUCTS CONTAINING CYCLOALIPHATIC DIOL ANTIMICROBIAL AGENTS AND METHODS OF USING THE COMPOSITIONS AND PRODUCTS” (EASTMAN CHEMICAL COMPANY, priority 2009, published 2011).

Legend:
Assay in all cases: Microbial challenge testing in BPW
Format in all cases: cell-based
Bacillus subtilis = test system: Bacillus subtilis
Procedure: (§1) The microorganisms used in challenge tests are given in Table 3, designated as either ATCC (American Type Culture Collection) or wild type. These wild type organisms were problematic organisms previously isolated from chemical products. In the description for each organism, the bacteria are indicated as either GN (Gram negative) or GP (Gram positive).
(§2) All of the microorganisms were grown in Tryptose Soy Broth (TSB), DIFCO™ available from Becton, Dickinson and Company, containing 1% dextrose. Aspergillus niger and Candida albicans were incubated at 22° C.±2° C. for at least 96 hours. All bacteria were incubated at 35° C.±2° C. in a humidified incubator for at least 96 hours.
(§3) The following procedure was followed to determine the amount of each challenge material (inoculum broth) required to produce a 10^8 cfu/mL challenge, which is equivalent to a final test-sample microbial concentration of 10^5 to 10^6 cfu (colony-forming units)/mL.
(§4) Using a sterile serological pipette, 1 mL of the growth from each TSB culture was transferred into tubes containing 9 mL phosphate buffer (pH 7.2) and mixed thoroughly. This process was repeated to make serial 1:10 dilutions. Then 0.1 mL of each sample and dilution was inoculated onto agar plates to produce the equivalent of a further 1:10 dilution. C. albicans and A. niger were inoculated onto SDA and bacteria were inoculated onto Plate Count Agar (PCA), DIFCO™ available from Becton, Dickinson and Company. The 0.1 mL aliquots were evenly distributed on the plates using the spread-plate technique. The spread-plate technique is performed by spreading the aliquot over the entire plate surface using a sterile spreading rod while rotating the plate with a rotary auto-plater. After the inoculum was absorbed completely, each plate was inverted and incubated (fungi at 22° C.±2° C. and bacteria at 35° C.±2° C.).
(§5) After incubation for at least 48 hours, colonies that had developed on the agar plates were counted and recorded with the corresponding dilution. If counting had to be delayed temporarily, plates were refrigerated, preferably no more than 24 hours, until they could be counted. The number of cfu/mL was determined by multiplying the count by the dilution factor for that particular plate.
(§6) Turbidity in Nepholemetric Turbidity Units (NTU) was measured for each serial dilution using the HF-Micro 100 Model Turbidimeter. For each microorganism, the plate counts were compared to the turbidity readings.
(§7) Control substrates (“broth alone”) were prepared for each microorganism separately in triplicate by adding 13.5 mL of BPW (pH 7.0) containing 1% (w/v) dextrose to each 20-mL glass tube; then adding 1.5 mL challenge material to produce a final concentration at time zero of 10^5 to 10^6 cfu/mL and a total volume of 15 mL.
(§8) Test sample substrates were prepared containing each test material (1,4-CHDM, etc) or combination of test materials at the concentrations shown in Tables 5 and 6. Sample substrates were prepared in triplicate, except those substrates containing PE or CG which were prepared in duplicate. Substrates were prepared by adding BPW containing 1% (w/v) dextrose to each 20-mL glass tube, then adding the test material in the amount appropriate to achieve the desired weight/volume percent (g/100 mL) and to obtain a total volume of BPW with dextrose and test material of 13.5 mL. Then 1.5 mL challenge material was added to produce a final concentration at time zero of 10^5 to 10^6 cfu/mL of the respective organism and a total test sample substrate volume of 15 mL.
(§9) After mixing, all challenged substrates were incubated at 35° C.±2° C. for 14 days and then at ambient room temperature.

Escherichia coli = test system: Escherichia coli
Procedure: as §1, §2, §3, §4, §5, §6, §7, §8, §9

Staphylococcus aureus = test system: Staphylococcus aureus
Procedure: as §1, §2, §3, §4, §5, §6, §7, §8, §9

[1] = test system: Staphylococcus epidermidis
Procedure: as §1, §2, §3, §4, §5, §6, §7, §8, §9

Burkholderia cepacia = test system: Burkholderia cepacia
Procedure: as §1, §2, §3, §4, §5, §6, §7, §8, §9

Pseudomonas aeruginosa = conditions: 0.5%; 3 days incubation
Procedure: as §1, §2, §3, §4, §5, §6, §7, §8, §9

## OCC1CCCC(CO)C1 (stereo not shown) [1,3-CHDM]
Bacillus subtilis; 0.5%, 3 days incubation
  Grade code B. subtilis: 4 (1001 to 10,000 colonies (thus 10,000 cfu/mL to 100,000 cfu/mL))
Bacillus subtilis; 0.5%, 14 days incubation
  Grade code B. subtilis: 4 (1001 to 10,000 colonies (thus 10,000 cfu/mL to 100,000 cfu/mL))
Bacillus subtilis; 0.5%, 30 days incubation
  Grade code B. subtilis: 4 (1001 to 10,000 colonies (thus 10,000 cfu/mL to 100,000 cfu/mL))
Bacillus subtilis; 1.25%, 3 days incubation
  Grade code B. subtilis: 4 (1001 to 10,000 colonies (thus 10,000 cfu/mL to 100,000 cfu/mL))
Bacillus subtilis; 1.25%, 14 days incubation
  Grade code B. subtilis: 4 (1001 to 10,000 colonies (thus 10,000 cfu/mL to 100,000 cfu/mL))
Bacillus subtilis; 1.25%, 30 days incubation
  Grade code B. subtilis: 4 (1001 to 10,000 colonies (thus 10,000 cfu/mL to 100,000 cfu/mL))
Bacillus subtilis; 2.5%, 3 days incubation
  Grade code B. subtilis: 4 (1001 to 10,000 colonies (thus 10,000 cfu/mL to 100,000 cfu/mL))
Bacillus subtilis; 2.5%, 14 days incubation
  Grade code B. subtilis: 4 (1001 to 10,000 colonies (thus 10,000 cfu/mL to 100,000 cfu/mL))
Bacillus subtilis; 2.5%, 30 days incubation
  Grade code B. subtilis: 4 (1001 to 10,000 colonies (thus 10,000 cfu/mL to 100,000 cfu/mL))
Escherichia coli; 0.5%, 3 days incubation
  Grade code E. coli: 5 (More than 10,000 colonies estimated (thus >100,000 cfu/mL))
Escherichia coli; 0.5%, 14 days incubation
  Grade code E. coli: 5 (More than 10,000 colonies estimated (thus >100,000 cfu/mL))
Escherichia coli; 0.5%, 30 days incubation
  Grade code E. coli: 5 (More than 10,000 colonies estimated (thus >100,000 cfu/mL))
Escherichia coli; 1.25%, 3 days incubation
  Grade code E. coli: 5 (More than 10,000 colonies estimated (thus >100,000 cfu/mL))
Escherichia coli; 1.25%, 14 days incubation
  Grade code E. coli: 4 (1001 to 10,000 colonies (thus 10,000 cfu/mL to 100,000 cfu/mL))
Escherichia coli; 1.25%, 30 days incubation
  Grade code E. coli: 4 (1001 to 10,000 colonies (thus 10,000 cfu/mL to 100,000 cfu/mL))
Escherichia coli; 2.5%, 3 days incubation
  Grade code E. coli: 5 (More than 10,000 colonies estimated (thus >100,000 cfu/mL))
Escherichia coli; 2.5%, 14 days incubation
  Grade code E. coli: 4 (1001 to 10,000 colonies (thus 10,000 cfu/mL to 100,000 cfu/mL))
Escherichia coli; 2.5%, 30 days incubation
  Grade code E. coli: 4 (1001 to 10,000 colonies (thus 10,000 cfu/mL to 100,000 cfu/mL))
Staphylococcus aureus; 0.5%, 3 days incubation
  Grade code S. aureus: 4 (1001 to 10,000 colonies (thus 10,000 cfu/mL to 100,000 cfu/mL))
Staphylococcus aureus; 0.5%, 14 days incubation
  Grade code S. aureus: 4 (1001 to 10,000 colonies (thus 10,000 cfu/mL to 100,000 cfu/mL))
Staphylococcus aureus; 0.5%, 30 days incubation
  Grade code S. aureus: 4 (1001 to 10,000 colonies (thus 10,000 cfu/mL to 100,000 cfu/mL))
Staphylococcus aureus; 1.25%, 3 days incubation
  Grade code S. aureus: 4 (1001 to 10,000 colonies (thus 10,000 cfu/mL to 100,000 cfu/mL))
Staphylococcus aureus; 1.25%, 14 days incubation
  Grade code S. aureus: 4 (1001 to 10,000 colonies (thus 10,000 cfu/mL to 100,000 cfu/mL))
Staphylococcus aureus; 1.25%, 30 days incubation
  Grade code S. aureus: 4 (1001 to 10,000 colonies (thus 10,000 cfu/mL to 100,000 cfu/mL))
Staphylococcus aureus; 2.5%, 3 days incubation
  Grade code S. aureus: 4 (1001 to 10,000 colonies (thus 10,000 cfu/mL to 100,000 cfu/mL))
Staphylococcus aureus; 2.5%, 14 days incubation
  Grade code S. aureus: 4 (1001 to 10,000 colonies (thus 10,000 cfu/mL to 100,000 cfu/mL))
Staphylococcus aureus; 2.5%, 30 days incubation
  Grade code S. aureus: 4 (1001 to 10,000 colonies (thus 10,000 cfu/mL to 100,000 cfu/mL))
[1]; 0.5%, 3 days incubation
  Grade code S. epidermidis: 4 (1001 to 10,000 colonies (thus 10,000 cfu/mL to 100,000 cfu/mL))
[1]; 0.5%, 13 days incubation
  Grade code S. epidermidis: 4 (1001 to 10,000 colonies (thus 10,000 cfu/mL to 100,000 cfu/mL))
[1]; 0.5%, 30 days incubation
  Grade code S. epidermidis: 4 (1001 to 10,000 colonies (thus 10,000 cfu/mL to 100,000 cfu/mL))
[1]; 1.25%, 3 days incubation
  Grade code S. epidermidis: 4 (1001 to 10,000 colonies (thus 10,000 cfu/mL to 100,000 cfu/mL))
[1]; 1.25%, 13 days incubation
  Grade code S. epidermidis: 3.7
[1]; 1.25%, 30 days incubation
  Grade code S. epidermidis: 4 (1001 to 10,000 colonies (thus 10,000 cfu/mL to 100,000 cfu/mL))
[1]; 2.5%, 3 days incubation
  Grade code S. epidermidis: 4 (1001 to 10,000 colonies (thus 10,000 cfu/mL to 100,000 cfu/mL))
[1]; 2.5%, 13 days incubation
  Grade code S. epidermidis: 3 (101 to 1000 colonies (thus 1000 to 10,000 cfu/mL))
[1]; 2.5%, 30 days incubation
  Grade code S. epidermidis: 4 (1001 to 10,000 colonies (thus 10,000 cfu/mL to 100,000 cfu/mL))
Burkholderia cepacia; 0.5%, 3 days incubation
  Grade code B. cepacia: 5 (More than 10,000 colonies estimated (thus >100,000 cfu/mL))
Burkholderia cepacia; 0.5%, 14 days incubation
  Grade code B. cepacia: 5 (More than 10,000 colonies estimated (thus >100,000 cfu/mL))
Burkholderia cepacia; 0.5%, 30 days incubation
  Grade code B. cepacia: 5 (More than 10,000 colonies estimated (thus >100,000 cfu/mL))
Burkholderia cepacia; 1.25%, 3 days incubation
  Grade code B. cepacia: 4.7
Burkholderia cepacia; 1.25%, 14 days incubation
  Grade code B. cepacia: 4.7
Burkholderia cepacia; 1.25%, 30 days incubation
  Grade code B. cepacia: 4.7
Burkholderia cepacia; 2.5%, 3 days incubation
  Grade code B. cepacia: 4 (1001 to 10,000 colonies (thus 10,000 cfu/mL to 100,000 cfu/mL))
Burkholderia cepacia; 2.5%, 14 days incubation
  Grade code B. cepacia: 4 (1001 to 10,000 colonies (thus 10,000 cfu/mL to 100,000 cfu/mL))
Burkholderia cepacia; 2.5%, 30 days incubation
  Grade code B. cepacia: 4 (1001 to 10,000 colonies (thus 10,000 cfu/mL to 100,000 cfu/mL))
Pseudomonas aeruginosa
  Grade code P. aeruginosa: 5 (More than 10,000 colonies estimated (thus >100,000 cfu/mL))
